Literature values, collected in patent publication US20100216719A1, “Soluble Fiber Combinations for Weight Control and Improving Parameters of Cardiovascular Health” (MANNATECH, INCORPORATED, priority 2005, published 2010).

Legend:
[1] = subjects supplemented with 3.8 grams per day for 28 days
[2] = test animals

Substance	reduction in ApoB [1] [%]	reduction in LDL cholesterol [1] [%]	reduction in fasting glucose levels [1] [%]	reduction in plasma cholesterol [1] [%]	reduction in total cholesterol/HDL cholesterol ratio [1] [%]	effect on cholesterol [2]	effect on triglycerides [2]
Konjac glucomannan	12.9	20.7	23.2	11.1	15.6		
guar gum						decreased only cholesterol	
xanthan gum						significantly reduced	significantly reduced
